How the values were obtained:
Assay type in all cases: in vivo, human
[1] = tested on: healthy, cyclic women; assay: Return of ovulation after the last treatment day; details: for Ovulation observed, average days after last treatment: post-treatment period
Procedure: After the last treatment day, assessments were continued every three (±1) days until ovulation was observed, followed by P measurements 2 (±1) and, if necessary, 4 (±1) days after ovulation. An end-of-study examination was performed 6 (±1) days after ovulation, or on day 30 (±1) in case no ovulation had been observed until then.

[2] = tested on: healthy, cyclic women; assay: Ovarian activity according the Hoogland-Skouby score during two 28-day treatment periods
Procedure: (§1) The tablets prepared in Example 1 were tested in a single-center, open-label, adaptive design study to evaluate the influence on hormonal and ovarian function and vaginal bleeding pattern of different higher dosages of LNG administered once daily for 28 days over two consecutive treatment cycles in healthy, cyclic women.
The first tested dosage was 0.095 mg per day. The choice of subsequent dosages depended on the occurrence of ovulations in the previous treatment groups. The study was stopped when the lowest dosage completely inhibiting ovulation was identified, and one higher and one lower dosage were investigated.
Subjects started study medication intake on the first day of menstrual bleeding after the pre-treatment cycle. One tablet was taken orally, around the same time every morning, during 56 consecutive days. Study visits were planned every three (±1) days from treatment day 3 (±1) until 27 (±1) and from day 31 (±1) until day 55 (±1). At each visit the diameter of the largest follicle-like structure (FLS) and serum follicle-stimulating hormone (FSH), luteinizing hormone (LH), estradiol (E2) and P concentrations were measured.
The primary outcome parameter was ovarian activity according the Hoogland-Skouby score (Table 1), determined for each 28-day treatment period (Hoogland H J, Skouby S O. “Ultrasound evaluation of ovarian activity under oral contraceptives,” Contraception 1993; 47: pp. 583-90).
If ovulation was observed during treatment, the subsequent luteal phase was evaluated using the Landgren criterion, i.e. the luteal phase was considered adequate when P concentrations were >16 nmol/L during at least 5 days (Landgren et al., “Hormonal effects of the 300 μg norethisterone (NET) minipill. 1. Daily steroid levels in 43 subjects during a pretreatment cycle and during the second month of NET administration,” Contraception 1980; 21: pp. 87-113). TVUS measurements of the diameter of the largest FLS (mean of two directions) were performed using a Voluson E8 Expert device (GE Medical Systems). Serum FSH, LH, E2, P and SHBG concentrations were determined by validated chemiluminescent microparticle immunoassays (Abbott, Longford, Ireland). All pharmacodynamic parameters were evaluated descriptively.

[3] = tested on: healthy, cyclic women; assay: Vaginal bleeding pattern (daily record); details: excluding the first 7 treatment days
Procedure: as §1
Throughout the study, subjects kept a daily record of vaginal bleeding. During the treatment period, they also documented the time of study medication intake.

[4] = LNG 0.095 mg per day, treatment period 1
[5] = LNG 0.095 mg per day, treatment period 2
[6] = LNG 0.115 mg per day, treatment period 1
[7] = LNG 0.115 mg per day, treatment period 2
[8] = LNG 0.135 mg per day, treatment period 1
[9] = LNG 0.135 mg per day, treatment period 2

C#C[C@]1(O)CC[C@H]2[C@@H]3CCC4=CC(=O)CC[C@@H]4[C@H]3CC[C@@]21CC (racemic) [LNG, levonorgestrel]
Ovulation observed, average days after last treatment ([1]; LNG 0.095 mg per day for 56 days): 15.5 days
Ovulation observed, average days after last treatment ([1]; LNG 0.115 mg per day for 56 days): 14.1 days
Ovulation observed, average days after last treatment ([1]; LNG 0.135 mg per day for 56 days): 12.8 days
P concentrations after post-treatment ovulation ([1]; majority of subjects, within the 30-day post-treatment period): ≥ 16 nmol/L
Subjects with Hoogland-Skouby score 1 (No activity), % [2, 4]: 3.7%
Subjects with Hoogland-Skouby score 2 (Potential activity), % [2, 4]: 29.6%
Subjects with Hoogland-Skouby score 3 (Non-active FLS), % [2, 4]: 3.7%
Subjects with Hoogland-Skouby score 4 (Active FLS), % [2, 4]: 55.6%
Subjects with Hoogland-Skouby score 5 (LUF), % [2, 4]: 0%
Subjects with Hoogland-Skouby score 6 ('Ovulation'), % [2, 4]: 7.4%
Subjects with Hoogland-Skouby score 1 (No activity), % [2, 5]: 0%
Subjects with Hoogland-Skouby score 2 (Potential activity), % [2, 5]: 24.0%
Subjects with Hoogland-Skouby score 3 (Non-active FLS), % [2, 5]: 0%
Subjects with Hoogland-Skouby score 4 (Active FLS), % [2, 5]: 76.0%
Subjects with Hoogland-Skouby score 5 (LUF), % [2, 5]: 0%
Subjects with Hoogland-Skouby score 6 ('Ovulation'), % [2, 5]: 0%
Subjects with Hoogland-Skouby score 1 (No activity), % [2, 6]: 3.7%
Subjects with Hoogland-Skouby score 2 (Potential activity), % [2, 6]: 22.2%
Subjects with Hoogland-Skouby score 3 (Non-active FLS), % [2, 6]: 3.7%
Subjects with Hoogland-Skouby score 4 (Active FLS), % [2, 6]: 70.4%
Subjects with Hoogland-Skouby score 5 (LUF), % [2, 6]: 0%
Subjects with Hoogland-Skouby score 6 ('Ovulation'), % [2, 6]: 0%
Subjects with Hoogland-Skouby score 1 (No activity), % [2, 7]: 3.85%
Subjects with Hoogland-Skouby score 2 (Potential activity), % [2, 7]: 23.1%
Subjects with Hoogland-Skouby score 3 (Non-active FLS), % [2, 7]: 7.7%
Subjects with Hoogland-Skouby score 4 (Active FLS), % [2, 7]: 65.4%
Subjects with Hoogland-Skouby score 5 (LUF), % [2, 7]: 0%
Subjects with Hoogland-Skouby score 6 ('Ovulation'), % [2, 7]: 0%
Subjects with Hoogland-Skouby score 1 (No activity), % [2, 8]: 4.0%
Subjects with Hoogland-Skouby score 2 (Potential activity), % [2, 8]: 32.0%
Subjects with Hoogland-Skouby score 3 (Non-active FLS), % [2, 8]: 0%
Subjects with Hoogland-Skouby score 4 (Active FLS), % [2, 8]: 64.0%
Subjects with Hoogland-Skouby score 5 (LUF), % [2, 8]: 0%
Subjects with Hoogland-Skouby score 6 ('Ovulation'), % [2, 8]: 0%
Subjects with Hoogland-Skouby score 1 (No activity), % [2, 9]: 4.0%
Subjects with Hoogland-Skouby score 2 (Potential activity), % [2, 9]: 24.0%
Subjects with Hoogland-Skouby score 3 (Non-active FLS), % [2, 9]: 4.0%
Subjects with Hoogland-Skouby score 4 (Active FLS), % [2, 9]: 68.0%
Subjects with Hoogland-Skouby score 5 (LUF), % [2, 9]: 0%
Subjects with Hoogland-Skouby score 6 ('Ovulation'), % [2, 9]: 0%
Lowest dosage at which no ovulation occurred (lowest effective dosage) ([2]; once daily oral, two 28-day treatment periods, 0.095, 0.115 and 0.135 mg tested): 0.115 mg per day
Number of days with bleeding or spotting during treatment, mean (±SD) ([3]; LNG 0.095 mg per day): 12.3 (±8.6) days
Number of days with bleeding or spotting during treatment, median ([3]; LNG 0.095 mg per day): 11.5 days
Number of days with bleeding or spotting during treatment, mean (±SD) ([3]; LNG 0.115 mg per day): 14.5 (±9.4) days
Number of days with bleeding or spotting during treatment, median ([3]; LNG 0.115 mg per day): 14.5 days

Reference: US11679114B2, “Progestogen-only oral contraception” (Navad Life Sciences Pte, priority 2021, dated 2023)
